Experimental data from US9822114B2, “Tricyclic oxazolidinone antibiotic compounds” (Idorsia Pharmaceuticals Ltd, priority 2008, dated 2017).
Converted amounts (≈) assume the structure as drawn.

System: M. catarrhalis A894
Experiment: Minimal inhibitory concentration (MIC), microdilution method in cation-adjusted Mueller-Hinton Broth (CLSI M7-A7)
Assay type: cell-based
Details: Moraxella catarrhalis, strain A894
Description: Minimal inhibitory concentrations (MICs; mg/1) were determined in cation-adjusted Mueller-Hinton Broth by a microdilution method following the description given in “Methods for Dilution Antimicrobial Susceptibility Tests for Bacteria that Grow Aerobically”, Approved standard, 7th ed., Clinical and Laboratory Standards Institute (CLSI) Document M7-A7, Wayne, Pa., USA, 2006.

| Molecule | MIC [µg/mL] |
| --- | --- |
| O=C1COc2ccc(N3C[C@@H](CCCN[C@@H]4Cn5c(=O)ccc6ccc(F)c4c65)OC3=O)nc2N1 [Example 190, (S)-9-fluoro-1-{3-[(R)-2-oxo-3-(3-oxo-3,4-dihydro-2H-pyrido[3,2-b][1,4]oxazin-6-yl)-oxazolidin-5-yl]-propylamino}-1,2-dihydro-pyrrolo[3,2,1-ij]quinolin-4-one] | ≤ 0.031 |
| O=C1CSc2ccc(N3C[C@H](CNCC4Cn5c(=O)ccc6ccc(F)c4c65)OC3=O)cc2N1 (mixture of isomers) [Example 30, (1RS)-9-fluoro-1-({[(S)-2-oxo-3-(3-oxo-3,4-dihydro-2H-benzo[1,4]thiazin-6-yl)-oxazolidin-5-ylmethyl]-amino}-methyl)-1,2-dihydro-pyrrolo[3,2,1-ij]quinolin-4-one] | 0.031 |
| O=C1CSc2ccc(N3C[C@H](CCNC[C@H]4Cn5c(=O)ccc6ccc(F)c4c65)OC3=O)cc2N1 [Example 49, (S)-9-fluoro-1-({2-[(S)-2-oxo-3-(3-oxo-3,4-dihydro-2H-benzo[1,4]thiazin-6-yl)-oxazolidin-5-yl]-ethylamino}-methyl)-1,2-dihydro-pyrrolo[3,2,1-ij]quinolin-4-one] | ≤ 0.031 |
| O=C1CSc2ccc(N3C[C@@H](CCCN[C@H]4Cn5c(=O)ccc6ccc(F)c4c65)OC3=O)cc2N1 [Example 127, (R)-9-fluoro-1-{3-[(R)-2-oxo-3-(3-oxo-3,4-dihydro-2H-benzo[1,4]thiazin-6-yl)-oxazolidin-5-yl]-propylamino}-1,2-dihydro-pyrrolo[3,2,1-ij]quinolin-4-one] | ≤ 0.031 |
| O=C1CSc2ccc(N3C[C@@H](CNCCC4CN5C(=O)CCc6ccc(F)c4c65)OC3=O)cc2N1 (mixture of isomers) [Example 24, (1RS)-9-fluoro-1-(2-{[(R)-2-oxo-3-(3-oxo-3,4-dihydro-2H-benzo[1,4]thiazin-6-yl)-oxazolidin-5-ylmethyl]-amino}-ethyl)-1,2,5,6-tetrahydro-pyrrolo[3,2,1-ij]quinolin-4-one] | ≤ 0.031 |
| O=C1COc2ccc(N3C[C@@H](CCCN[C@H]4Cn5c(=O)ccc6ncc(F)c4c65)OC3=O)cc2N1 [Example 140, (R)-3-fluoro-4-{3-[(R)-2-oxo-3-(3-oxo-3,4-dihydro-2H-benzo[1,4]oxazin-6-yl)-oxazolidin-5-yl]-propylamino}-4,5-dihydro-pyrrolo[3,2,1-de][1,5]naphthyridin-7-one] | ≤ 0.031 |
| O=C1CSc2ccc(N3C[C@@H](CCN[C@H]4Cn5c(=O)ccc6cccc4c65)OC3=O)cc2N1 [Example 158, (R)-1-{2-[(R)-2-oxo-3-(3-oxo-3,4-dihydro-2H-benzo[1,4]thiazin-6-yl)-oxazolidin-5-yl]-ethylamino}-1,2-dihydro-pyrrolo[3,2,1-ij]quinolin-4-one] | ≤ 0.031 |
| O=C1CSc2ccc(N3C[C@H]([C@H](O)CCN[C@H]4Cn5c(=O)ccc6ccc(F)c4c65)OC3=O)cc2N1 (racemic) [Example 113, (1RS)-9-fluoro-1-{(3RS)-3-hydroxy-3-[(5RS)-2-oxo-3-(3-oxo-3,4-dihydro-2H-benzo[1,4]thiazin-6-yl)-oxazolidin-5-yl]-propylamino}-1,2-dihydro-pyrrolo[3,2,1-ij]quinolin-4-one] | ≤ 0.031 |
| O=C1CSc2ccc(N3C[C@H](CNCCC4Cn5c(=O)ccc6ncc(F)c4c65)OC3=O)cc2N1 (mixture of isomers) [Example 16, (4RS)-3-fluoro-4-(2-{[(S)-2-oxo-3-(3-oxo-3,4-dihydro-2H-benzo[1,4]thiazin-6-yl)-oxazolidin-5-ylmethyl]-amino}-ethyl)-4,5-dihydro-pyrrolo[3,2,1-de][1,5]naphthyridin-7-one] | ≤ 0.031 |
| COC(=O)[C@H]1[C@H](NCCC[C@@H]2CN(c3ccc4c(c3)NC(=O)CS4)C(=O)O2)c2c(F)ccc3ccc(=O)n1c23 (relative stereo) [Example 181, (1R*,2R*)-9-fluoro-4-oxo-1-{3-[(R)-2-oxo-3-(3-oxo-3,4-dihydro-2H-benzo[1,4]thiazin-6-yl)-oxazolidin-5-yl]-propylamino}-1,2-dihydro-4H-pyrrolo[3,2,1-ij]quinoline-2-carboxylic acid methyl ester] | ≤ 0.031 |
| O=C1COc2ccc(N3C[C@@H](CCCN[C@H]4Cn5c(=O)cnc6ccc(F)c4c65)OC3=O)cc2N1 [Example 104, (R)-7-fluoro-6-{3-[(R)-2-oxo-3-(3-oxo-3,4-dihydro-2H-benzo[1,4]oxazin-6-yl)-oxazolidin-5-yl]-propylamino}-5,6-dihydro-pyrrolo[1,2,3-de]quinoxalin-3-one] | ≤ 0.031 |
| O=C1COc2ccc(N3C[C@H](CCN[C@H]4Cn5c(=O)ccc6cccc4c65)OC3=O)cc2N1 [Example 157, (R)-1-{2-[(S)-2-oxo-3-(3-oxo-3,4-dihydro-2H-benzo[1,4]oxazin-6-yl)-oxazolidin-5-yl]-ethylamino}-1,2-dihydro-pyrrolo[3,2,1-ij]quinolin-4-one] | 2 (≈ 4.48 µM) |
| O=C1COc2ccc(N3C[C@@H](CCCN[C@@H]4Cn5c(=O)ccc6ncc(F)c4c65)OC3=O)cc2N1 [Example 146, (S)-3-fluoro-4-{3-[(R)-2-oxo-3-(3-oxo-3,4-dihydro-2H-benzo[1,4]oxazin-6-yl)-oxazolidin-5-yl]-propylamino}-4,5-dihydro-pyrrolo[3,2,1-de][1,5]naphthyridin-7-one] | ≤ 0.031 |
| O=C1COc2ccc(N3C[C@H](CCNCC4Cn5c(=O)ccc6ccc(F)c4c65)OC3=O)cc2N1 (mixture of isomers) [Example 1, (1RS)-9-fluoro-1-({2-[(S)-2-oxo-3-(3-oxo-3,4-dihydro-2H-benzo[1,4]oxazin-6-yl)-oxazolidin-5-yl]-ethylamino}-methyl)-1,2-dihydro-pyrrolo[3,2,1-ij]quinolin-4-one] | ≤ 0.031 |
| O=C1CSc2ccc(N3C[C@H](CCNCC4CN5C(=O)CCc6ccc(F)c4c65)OC3=O)cc2N1 (mixture of isomers) [Example 29, (1RS)-9-fluoro-1-({2-[(S)-2-oxo-3-(3-oxo-3,4-dihydro-2H-benzo[1,4]thiazin-6-yl)-oxazolidin-5-yl]-ethylamino}-methyl)-1,2,5,6-tetrahydro-pyrrolo[3,2,1-ij]quinolin-4-one] | ≤ 0.031 |
| O=C1COc2ccc(N3C[C@@H](CCCN[C@@H]4Cn5c(=O)ccc6nccc4c65)OC3=O)cc2N1 [Example 40, (S)-4-{3-[(R)-2-oxo-3-(3-oxo-3,4-dihydro-2H-benzo[1,4]oxazin-6-yl)-oxazolidin-5-yl]-propylamino}-4,5-dihydro-pyrrolo[3,2,1-de][1,5]naphthyridin-7-one] | 0.125 (≈ 0.271 µM) |
| O=C1CSc2ccc(N3C[C@H](CCCNC4Cn5c(=O)ccc6ccc(F)c4c65)OC3=O)nc2N1 (mixture of isomers) [Example 126, (RS)-9-fluoro-1-{3-[(S)-2-oxo-3-(3-oxo-3,4-dihydro-2H-pyrido[3,2-b][1,4]thiazin-6-yl)-oxazolidin-5-yl]-propylamino}-1,2-dihydro-pyrrolo[3,2,1-ij]quinolin-4-one] | ≤ 0.031 |

Same assay, conditions: strain A894

| Molecule | MIC for M. catarrhalis A894 |
| --- | --- |
| (1R,2R)-2-(1-hydroxy-1-methyl-ethyl)-1-{3-[(R)-2-oxo-3-(3-oxo-3,4-dihydro-2H-benzo[1,4]thiazin-6-yl)-oxazolidin-5-yl]-propylamino}-1,2-dihydro-pyrrolo[3,2,1-ij]quinolin-4-one and (1S,2S)-2-(1-hydroxy-1-methyl-ethyl)-1-{3-[(R)-2-oxo-3-(3-oxo-3,4-dihydro-2H-benzo[1,4]thiazin-6-yl)-oxazolidin-5-yl]-propylamino}-1,2-dihydro-pyrrolo[3,2,1-ij]quinolin-4-one [Example 170] | 0.25 mg/L |
| O=C1CSc2ccc(N3C[C@H](CCCN[C@@H]4Cn5c(=O)ccc6ccc(F)c4c65)OC3=O)nc2N1 [Example 191, (S)-9-fluoro-1-{3-[(S)-2-oxo-3-(3-oxo-3,4-dihydro-2H-pyrido[3,2-b][1,4]thiazin-6-yl)-oxazolidin-5-yl]-propylamino}-1,2-dihydro-pyrrolo[3,2,1-U]quinolin-4-one] | ≦0.031 mg/l |
| (1R,2R)-2-methoxymethyl-1-{3-[(R)-2-oxo-3-(3-oxo-3,4-dihydro-2H-benzo[1,4]thiazin-6-yl)-oxazolidin-5-yl]-propylamino}-1,2-dihydro-pyrrolo[3,2,1-ij]quinolin-4-one and (1S,2S)-2-methoxymethyl-1-{3-[(R)-2-oxo-3-(3-oxo-3,4-dihydro-2H-benzo[1,4]thiazin-6-yl)-oxazolidin-5-yl]-propylamino}-1,2-dihydro-pyrrolo[3,2,1-ij]quinolin-4-one [Example 165] | 0.125 mg/L |
| (1R,2R)-4-oxo-1-{3-[(R)-2-oxo-3-(3-oxo-3,4-dihydro-2H-benzo[1,4]thiazin-6-yl)-oxazolidin-5-yl]-propylamino}-1,2-dihydro-4H-pyrrolo[3,2,1-ij]quinoline-2-carboxylic acid methyl ester and (1S,2S)-4-oxo-1-{3-[(R)-2-oxo-3-(3-oxo-3,4-dihydro-2H-benzo[1,4]thiazin-6-yl)-oxazolidin-5-yl]-propylamino}-1,2-dihydro-4H-pyrrolo[3,2,1-ij]quinoline-2-carboxylic acid methyl ester [Example 161] | 0.125 mg/L |
| O=C1COc2ccc(N3C[C@H](CCNCC4Cn5c(=O)ccc6cccc4c65)OC3=O)cc2N1 (mixture of isomers) [Example 62, (RS)-1-({2-[(S)-2-oxo-3-(3-oxo-3,4-dihydro-2H-benzo[1,4]oxazin-6-yl)-oxazolidin-5-yl]-ethylamino}-methyl)-1,2-dihydro-pyrrolo[3,2,1-U]quinolin-4-one] | ≦0.031 mg/l |
| (1R,2R)-2-hydroxymethyl-1-{3-[(R)-2-oxo-3-(3-oxo-3,4-dihydro-2H-benzo[1,4]thiazin-6-yl)-oxazolidin-5-yl]-propylamino}-1,2-dihydro-pyrrolo[3,2,1-ij]quinolin-4-one and (1S,2S)-2-hydroxymethyl-1-{3-[(R)-2-oxo-3-(3-oxo-3,4-dihydro-2H-benzo[1,4]thiazin-6-yl)-oxazolidin-5-yl]-propylamino}-1,2-dihydro-pyrrolo[3,2,1-ij]quinolin-4-one [Example 163] | 0.031 mg/L |
